pIC50: −log10 of the molar value.

The experiment deals with GDF8 signaling (p-SMAD-3 (Ser423/425)). Briefly: AlphaScreen SureFire SMAD3 (p-Ser423/425) assay, GDF8-stimulated cells (GDF pSMAD). Type of experiment: cell-based. The note with it: Mus musculus, MPC-11, MPC11; GDF8-stimulated; p-SMAD3 AlphaScreen; read-out: GDF pSMAD (MPC11) (inhibition of GDF8 signaling).
On to `Nc1ncnc2ccc(-c3cccnc3-c3cc(Cl)c(F)cc3F)cc12` [compound 450, 6-(2-(5-Chloro-2,4-difluorophenyl)pyridin-3-yl)quinazolin-4-amine], for which the pIC50 was 6.87.
As for `COc1cccc(-c2ncccc2-c2ccc3ncnc(N)c3c2)c1` [compound 451, 6-(2-(3-Methoxyphenyl)pyridin-3-yl)quinazolin-4-amine], the pIC50 is 6.94.
The same measure for `Nc1ncnc2ccc(-c3cccnc3-c3cccc(OC(F)(F)F)c3)cc12` [compound 452, 6-(2-(3-(Trifluoromethoxy)phenyl)pyridin-3-yl)quinazolin-4-amine]: 6.65; for `Nc1ncnc2ccc(-c3cccnc3-c3ccc(F)c(F)c3)cc12` [compound 453, 6-(2-(3,4-Difluorophenyl)pyridin-3-yl)quinazolin-4-amine]: 6.09; for `Nc1ncnc2ccc(-c3cccnc3-c3cc(F)ccc3F)cc12` [compound 454, 6-(2-(2,5-Difluorophenyl)pyridin-3-yl)quinazolin-4-amine]: 6.03.
`Nc1ncnc2ccc(-c3cccnc3-c3ccc(F)cc3F)cc12` [compound 455, 6-(2-(2,4-Difluorophenyl)pyridin-3-yl)quinazolin-4-amine]: the pIC50 was 5.93.
Regarding `Nc1ncnc2ccc(-c3cccnc3-c3cccc(O)c3)cc12` [compound 456, 3-(3-(4-Aminoquinazolin-6-yl)pyridin-2-yl)phenol], the pIC50 was 6.52.
Regarding `Cc1ccc(-c2ncccc2-c2ccc3ncnc(N)c3c2)cc1F` [compound 459, 6-(2-(3-Fluoro-4-methylphenyl)pyridin-3-yl)quinazolin-4-amine], the pIC50 is 4.94.
The same measure for `Nc1ncnc2ccc(-c3cccnc3-c3cc(F)cc(Cl)c3)cc12` [compound 460, 6-(2-(3-Chloro-5-fluorophenyl)pyridin-3-yl)quinazolin-4-amine]: 6.89; for `Nc1ncnc2ccc(-c3cccnc3-c3cccc(F)c3)cc12` [compound 461, 6-(2-(3-Fluorophenyl)pyridin-3-yl)quinazolin-4-amine]: 6.26; for `Cc1ccccc1-c1ncccc1-c1ccc2ncnc(N)c2c1` [compound 462, 6-(2-(o-Tolyl)pyridin-3-yl)quinazolin-4-amine]: 4.73.
Turning to `Cc1ccc(Cl)cc1-c1ncccc1-c1ccc2ncnc(N)c2c1` [compound 463, 6-(2-(5-Chloro-2-methylphenyl)pyridin-3-yl)quinazolin-4-amine], the pIC50 was 6.53.
`Cc1c(Cl)cccc1-c1ncccc1-c1ccc2ncnc(N)c2c1` [compound 464, 6-(2-(3-Chloro-2-methylphenyl)pyridin-3-yl)quinazolin-4-amine]: the pIC50 is 5.40.
With `Cc1ccc(F)cc1-c1ncccc1-c1ccc2ncnc(N)c2c1` [compound 466, 6-(2-(5-Fluoro-2-methylphenyl)pyridin-3-yl)quinazolin-4-amine], the pIC50 was 5.12.
As to `Cc1cc(F)ccc1-c1ncccc1-c1ccc2ncnc(N)c2c1` [compound 467, 6-(2-(4-Fluoro-2-methylphenyl)pyridin-3-yl)quinazolin-4-amine], the pIC50 is 4.91.
The same measure for `Cc1c(F)cccc1-c1ncccc1-c1ccc2ncnc(N)c2c1` [compound 468, 6-(2-(3-Fluoro-2-methylphenyl)pyridin-3-yl)quinazolin-4-amine]: 5.11; for `Nc1ncnc2ccc(-c3cccnc3-c3cc(F)c(F)c(F)c3)cc12` [compound 469, 6-(2-(3,4,5-Trifluorophenyl)pyridin-3-yl)quinazolin-4-amine]: 5.80; for `Nc1ncnc2ccc(-c3cccnc3-c3ccc4c(c3)CCC4)cc12` [compound 470, 6-(2-(2,3-Dihydro-1H-inden-5-yl)pyridin-3-yl)quinazolin-4-amine]: 4.68.
`COc1ccc(F)c(-c2ncccc2-c2ccc3ncnc(N)c3c2)c1` [compound 473, 6-(2-(2-Fluoro-5-methoxyphenyl)pyridin-3-yl)quinazolin-4-amine]: the pIC50 was 6.53.
The same measure for `COc1cc(-c2ncccc2-c2ccc3ncnc(N)c3c2)ccc1F` [compound 474, 6-(2-(4-Fluoro-3-methoxyphenyl)pyridin-3-yl)quinazolin-4-amine]: 6.37; for `Nc1ncnc2ccc(-c3cccnc3-c3ccc(F)c(C(F)(F)F)c3)cc12` [compound 476, 6-(2-(4-Fluoro-3-(trifluoromethyl)phenyl)pyridin-3-yl)quinazolin-4-amine]: 5.56; for `N#Cc1cc(-c2ncccc2-c2ccc3ncnc(N)c3c2)ccc1F` [compound 477, 5-(3-(4-Aminoquinazolin-6-yl)pyridin-2-yl)-2-fluorobenzonitrile]: 6.31.
For the molecule `CC(C)c1cccc(-c2ncccc2-c2ccc3ncnc(N)c3c2)c1` [compound 478, 6-(2-(3-Isopropylphenyl)pyridin-3-yl)quinazolin-4-amine], the pIC50 was 5.18.
The same measure for `CC(C)Oc1cccc(-c2ncccc2-c2ccc3ncnc(N)c3c2)c1` [compound 480, 6-(2-(3-isopropoxyphenyl)pyridin-3-yl)quinazolin-4-amine]: 5.92; for `N#CCOc1cccc(-c2ncccc2-c2ccc3ncnc(N)c3c2)c1` [compound 481, 2-(3-(3-(4-Aminoquinazolin-6-yl)pyridin-2-yl)phenoxy)acetonitrile]: 5.89.
Consider `COCCOc1cccc(-c2ncccc2-c2ccc3ncnc(N)c3c2)c1` [compound 482, 6-(2-(3-(2-Methoxyethoxy)phenyl)pyridin-3-yl)quinazolin-4-amine], for which the pIC50 was 5.77.
With `Nc1ncnc2ccc(-c3cccnc3-c3cccc(OCC4CC4)c3)cc12` [compound 483, 6-(2-(3-(Cyclopropylmethoxy)phenyl)pyridin-3-yl)quinazolin-4-amine], the pIC50 is 6.09.
Take `Nc1ncnc2ccc(-c3cccnc3-c3cccc(OCC(F)(F)F)c3)cc12` [compound 484, 6-(2-(3-(2,2,2-Trifluoroethoxy)phenyl)pyridin-3-yl)quinazolin-4-amine]: the pIC50 was 6.79.
The value for `Fc1ccc(-c2ncccc2-c2ccc3ncnc(Nc4cccnc4)c3c2)cc1Cl` [compound 490, 6-(2-(3-Chloro-4-fluorophenyl)pyridin-3-yl)-N-(pyridin-3-yl)quinazolin-4-amine] was 5.19; that for `Cc1ccc(Nc2ncnc3ccc(-c4cccnc4-c4ccc(F)c(Cl)c4)cc23)cn1` [compound 491, 6-(2-(3-Chloro-4-fluorophenyl)pyridin-3-yl)-N-(6-methylpyridin-3-yl)quinazolin-4-amine] was 5.04.
In the case of `Fc1ccc(-c2ncccc2-c2ccc3ncnc(Nc4ccncc4)c3c2)cc1Cl` [compound 492, 6-(2-(3-Chloro-4-fluorophenyl)pyridin-3-yl)-N-(pyridin-4-yl)quinazolin-4-amine], the pIC50 was 5.43.
For `Nc1ncnc2ccc(-c3cccnc3-c3cc(O)cc(Cl)c3)cc12` [compound 493, 3-(3-(4-Aminoquinazolin-6-yl)pyridin-2-yl)-5-chlorophenol], the pIC50 was 6.03.
For the molecule `Nc1ncnc2ccc(-c3cccnc3-c3cc(O)cc(F)c3)cc12` [compound 494, 3-(3-(4-Aminoquinazolin-6-yl)pyridin-2-yl)-5-fluorophenol], the pIC50 is 6.97.
The value for `Cc1cc(O)cc(-c2ncccc2-c2ccc3ncnc(N)c3c2)c1` [compound 495, 3-(3-(4-Aminoquinazolin-6-yl)pyridin-2-yl)-5-methylphenol] was 6.61; that for `Nc1ncc2ccc(-c3cccnc3-c3ccc(F)c(Cl)c3)cc2n1` [compound 496, 7-(2-(3-Chloro-4-fluorophenyl)pyridin-3-yl)quinazolin-2-amine] was 6.11.
The value for `Nc1ncnc2ccc(-c3cccnc3-c3ccccc3Cl)cc12` [compound 497, 6-(2-(2-Chlorophenyl)pyridin-3-yl)quinazolin-4-amine] was 5.04.
The same measure for `Nc1ncnc2ccc(-c3cccnc3-c3cccc(Cl)c3Cl)cc12` [compound 498, 6-(2-(2,3-Dichlorophenyl)pyridin-3-yl)quinazolin-4-amine]: 5.92.
In the case of `Nc1ncnc2ccc(-c3cccnc3-c3ccc(F)cc3Cl)cc12` [compound 499, 6-(2-(2-Chloro-4-fluorophenyl)pyridin-3-yl)quinazolin-4-amine], the pIC50 is 5.19.
As to `Nc1ncnc2ccc(-c3cccnc3-c3cc(Cl)ccc3Cl)cc12` [compound 501, 6-(2-(2,5-Dichlorophenyl)pyridin-3-yl)quinazolin-4-amine], the pIC50 was 6.45.
`COc1cc(-c2ncccc2-c2ccc3ncnc(N)c3c2)c(F)cc1F` [compound 502, 6-(2-(2,4-Difluoro-5-methoxyphenyl)pyridin-3-yl)quinazolin-4-amine]: the pIC50 is 6.25.
Regarding `Nc1ncnc2ccc(-c3cccnc3-c3cccc(F)c3Cl)cc12` [compound 503, 6-(2-(2-Chloro-3-fluorophenyl)pyridin-3-yl)quinazolin-4-amine], the pIC50 was 5.32.
As for `Nc1ncnc2ccc(-c3cccnc3-c3cc(F)ccc3Cl)cc12` [compound 504, 6-(2-(2-Chloro-5-fluorophenyl)pyridin-3-yl)quinazolin-4-amine], the pIC50 is 5.30.
With `Fc1ccc(-c2ncccc2-c2ccc3ncncc3c2)cc1Cl` [compound 506, 6-(2-(3-Chloro-4-fluorophenyl)pyridin-3-yl)quinazoline], the pIC50 is 5.74.
The value for `Fc1ccc(-c2ncccc2-c2ccc3ncnc(C4CC4)c3c2)cc1Cl` [compound 507, 6-(2-(3-Chloro-4-fluorophenyl)pyridin-3-yl)-4-cyclopropylquinazoline] was 5.47; that for `Cc1cc(-c2ncc(NCc3ccncc3)cc2-c2ccc3ncsc3c2)ccc1F` [compound 509, 5-(Benzo[d]thiazol-6-yl)-6-(4-fluoro-3-methylphenyl)-N-(pyridin-4-ylmethyl)pyridin-3-amine] was 6.58.
Take `Cc1cccc(-c2cccnc2-c2ccc3[nH]ncc3c2)n1` [compound 517, 5-(6-Methyl-[2,3′-bipyridin]-2′-yl)-1H-indazole]: the pIC50 is 5.93.

These data come from patent publication US10858335B2 (Rigel Pharmaceuticals, Inc., priority 2014, dated 2020).
